In US20040102622A1, “Modulation of hepatocyte growth factor receptor expression” (Isis Pharmaceuticals Inc., priority 2002, published 2004):
Strand notation (5' to 3'): a small letter for the sugar, then the base; units joined by * are phosphorothioate-linked, units joined directly phosphodiester-linked; [ ] holds rarer units or linkages, { } end groups; capitals alone tell only the bases. e = 2'-O-(2-methoxyethyl) (MOE); [5mC] = 5-methylcytosine; d = 2'-deoxy (DNA)

Each substance was assayed on human hepatocyte growth factor receptor mRNA (assay: Inhibition of human hepatocyte growth factor receptor mRNA levels in T-24 cells, quantitative real-time PCR). Settings: averages from three experiments.
Further: test concentration or dose not given here.

Going from “209529 (antisense e[5mC]*e[5mC]*e[5mC]*eA*eG*d[5mC]*d[5mC]*dA*d[5mC]*dA*dT*dA*dT*dG*dG*eT*e[5mC]*eA*eG*e[5mC]) [compound 209529]” to “209528 (antisense eT*eT*eG*eG*eG*dA*dA*dA*dA*d[5mC]*d[5mC]*dT*dT*dG*dT*eA*eG*eA*eT*eT) [compound 209528]”, the “% INHIB (inhibition of human hepatocyte growth factor receptor mRNA levels)” value (“% INHIB” below) falls from 87% to 42%.

First: 209525 (antisense e[5mC]*eT*eG*eG*eT*d[5mC]*d[5mC]*dG*dT*d[5mC]*dA*dA*dA*dA*dA*e[5mC]*eA*eT*eA*eA) [compound 209525]
Second: 209527 (antisense e[5mC]*eG*e[5mC]*eT*eT*d[5mC]*dA*d[5mC]*dA*dG*d[5mC]*d[5mC]*dT*dG*dA*eT*eG*eA*eA*eT) [compound 209527]
The “% INHIB” value of the first is higher: 89% for the first, 81% for the second.

Compared with “155111 (antisense eG*eT*eT*e[5mC]*eG*dG*d[5mC]*dA*dG*dA*dA*dT*d[5mC]*dT*dG*eG*e[5mC]*eT*eT*eG) [compound 155111]”, “155130 (antisense eT*e[5mC]*eT*e[5mC]*eT*dG*dA*dA*d[5mC]*dT*d[5mC]*dA*dG*dG*dT*eA*eA*eA*eA*e[5mC]) [compound 155130]” is lower in “% INHIB” value: 86% for the first, 83% for the second.

First: 209522 (antisense eA*eG*eA*eG*eG*dT*dT*dT*dA*dT*d[5mC]*dT*dT*dT*d[5mC]*eG*eG*eT*eG*e[5mC]) [compound 209522]
Second: 209532 (antisense eA*eG*eT*eA*e[5mC]*dT*dA*dA*dT*dA*dA*dA*dA*dG*dA*eT*eT*eT*eG*eG) [compound 209532]
The “% INHIB” value of the first is higher: 73% for the first, 0% for the second.

First: 209545 (antisense eA*eA*eT*eA*e[5mC]*dA*dA*dG*dT*d[5mC]*d[5mC]*dT*dA*dT*dA*eA*eT*eA*eG*eT) [compound 209545]
Second: 155132 (antisense eG*eA*eT*eT*e[5mC]*d[5mC]*d[5mC]*dT*d[5mC]*dG*dG*dT*d[5mC]*dA*dG*eA*eA*eA*eT*eT) [compound 155132]
The “% INHIB” value of the first is lower: 10% for the first, 39% for the second.

First: 155118 (antisense e[5mC]*eA*eT*e[5mC]*e[5mC]*dA*dG*d[5mC]*dA*dT*dA*d[5mC]*dA*dG*dT*eT*eT*e[5mC]*eT*eT) [compound 155118]
Second: 155123 (antisense eG*e[5mC]*eA*eA*eA*dG*d[5mC]*dT*dG*dT*dG*dG*dT*dA*dA*eA*e[5mC]*eT*e[5mC]*eT) [compound 155123]
The “% INHIB” value of the first is lower: 55% for the first, 91% for the second.

Compared with “155126 (antisense e[5mC]*eT*eG*eT*eG*d[5mC]*dA*dT*dT*dT*d[5mC]*dA*dA*dT*dG*eT*eA*eT*eT*e[5mC]) [compound 155126]”, “155101 (antisense eT*eT*e[5mC]*eA*eG*d[5mC]*d[5mC]*dA*d[5mC]*dA*dG*dG*dA*dA*dA*eA*eA*e[5mC]*e[5mC]*e[5mC]) [compound 155101]” is lower in “% INHIB” value: 68% for the first, 40% for the second.

First: 209530 (antisense eT*eT*eA*e[5mC]*eA*dG*dG*dA*dT*d[5mC]*d[5mC]*dA*d[5mC]*dA*dT*eA*eG*eG*eA*eG) [compound 209530]
Second: 155099 (antisense e[5mC]*eA*eG*eG*eT*dT*dT*dT*dT*d[5mC]*d[5mC]*d[5mC]*dA*dA*d[5mC]*eA*e[5mC]*e[5mC]*eT*eG) [compound 155099]
The “% INHIB” value of the first is higher: 81% for the first, 77% for the second.

Going from “209550 (antisense eT*eG*e[5mC]*eG*e[5mC]*dG*d[5mC]*dT*dG*dT*dA*dG*dT*d[5mC]*d[5mC]*e[5mC]*eA*eG*e[5mC]*eT) [compound 209550]” to “209543 (antisense eG*eA*eT*eG*e[5mC]*d[5mC]*dA*d[5mC]*d[5mC]*dG*dT*dG*d[5mC]*dA*d[5mC]*eT*eG*eT*eG*e[5mC]) [compound 209543]”, the “% INHIB” value rises from 84% to 85%.

Going from “155103 (antisense eT*eG*eG*eG*eA*dA*dG*d[5mC]*dT*dG*dA*dT*dA*d[5mC]*dT*eT*e[5mC]*eA*eT*eA) [compound 155103]” to “155131 (antisense e[5mC]*eA*eA*eT*eT*dT*dG*dG*d[5mC]*dA*dA*dG*dG*dA*dG*e[5mC]*eA*eA*eA*eG) [compound 155131]”, the “% INHIB” value falls from 86% to 0%.

Going from “155115 (antisense eA*eG*eT*eT*e[5mC]*d[5mC]*dT*dT*d[5mC]*d[5mC]*dT*dG*d[5mC]*dT*dT*e[5mC]*eA*eT*eG*e[5mC]) [compound 155115]” to “209540 (antisense e[5mC]*eA*e[5mC]*eA*eT*d[5mC]*d[5mC]*d[5mC]*dT*dT*dG*dT*dA*dA*dG*eT*eT*eG*eG*eA) [compound 209540]”, the “% INHIB” value falls from 89% to 52%.

First: 155119 (antisense eA*eA*eG*eT*eA*dT*dA*dT*dT*dA*dA*dA*d[5mC]*dA*d[5mC]*eT*eT*e[5mC]*e[5mC]*eT) [compound 155119]
Second: 155097 (antisense e[5mC]*e[5mC]*eT*e[5mC]*eG*dG*dT*d[5mC]*dA*dG*dA*dA*dA*dT*dT*eG*eG*eG*eA*eA) [compound 155097]
The “% INHIB” value of the first is higher: 92% for the first, 53% for the second.

First: 209526 (antisense eT*eT*eG*eA*eT*dA*dG*dG*dG*dA*dA*dT*dG*d[5mC]*dA*e[5mC]*eA*e[5mC]*eA*eT) [compound 209526]
Second: 209553 (antisense e[5mC]*eG*e[5mC]*e[5mC]*e[5mC]*dA*d[5mC]*dG*dA*d[5mC]*dA*dA*dG*dG*dT*eG*eA*eA*eA*e[5mC]) [compound 209553]
The “% INHIB” value of the first is higher: 93% for the first, 0% for the second.

Compared with “209521 (antisense eG*eG*eA*eA*e[5mC]*d[5mC]*dA*dG*dT*dG*dG*dA*dG*dA*dA*eG*eT*e[5mC]*eA*eG) [compound 209521]”, “209536 (antisense e[5mC]*e[5mC]*eT*e[5mC]*e[5mC]*d[5mC]*dA*dT*dA*d[5mC]*dT*dA*dG*dA*dG*eA*eA*eG*eT*eA) [compound 209536]” is lower in “% INHIB” value: 58% for the first, 36% for the second.

Going from “155128 (antisense eA*e[5mC]*eT*eG*eT*dG*dA*dA*dT*dT*dT*dT*dT*d[5mC]*dA*eT*e[5mC]*e[5mC]*eA*eG) [compound 155128]” to “209555 (antisense eG*e[5mC]*eG*e[5mC]*eG*d[5mC]*dT*dG*d[5mC]*d[5mC]*d[5mC]*dT*dG*d[5mC]*d[5mC]*eA*eG*eT*eG*eA) [compound 209555]”, the “% INHIB” value falls from 83% to 0%.

Compared with “155120 (antisense eG*eT*eG*eT*e[5mC]*d[5mC]*dT*dA*dT*dT*dA*dA*dA*dG*d[5mC]*eA*eG*eT*eG*e[5mC]) [compound 155120]”, “155122 (antisense eA*eA*eG*e[5mC]*e[5mC]*dT*dA*dT*d[5mC]*d[5mC]*dA*dA*dA*dT*dG*eA*eG*eG*eA*eG) [compound 155122]” is lower in “% INHIB” value: 90% for the first, 69% for the second.

Going from “155125 (antisense eG*eG*eA*eA*eA*d[5mC]*dT*dG*dA*dT*d[5mC]*dT*dT*d[5mC]*dT*eG*eG*eA*eA*eA) [compound 155125]” to “209544 (antisense eT*eA*eA*eT*eA*dG*dT*dG*d[5mC]*dA*dA*dT*dT*dT*dT*eG*eG*e[5mC]*eA*eA) [compound 209544]”, the “% INHIB” value rises from 52% to 82%.

Going from “209546 (antisense eA*eA*eT*eT*e[5mC]*dA*dA*dG*dT*dT*dT*dT*dG*dG*dA*e[5mC]*eT*e[5mC]*e[5mC]*eA) [compound 209546]” to “155105 (antisense eA*eT*e[5mC]*eA*eA*dA*dG*dT*dA*dT*dT*dT*dG*dG*dA*eA*eA*eG*eG*eA) [compound 155105]”, the “% INHIB” value falls from 76% to 64%.

Compared with “155117 (antisense eG*eT*eA*eG*eA*dT*dT*dG*d[5mC]*dA*dG*dG*d[5mC]*dA*dG*eA*e[5mC]*eA*eG*eA) [compound 155117]”, “155112 (antisense eT*eA*eG*eG*eA*dG*dT*d[5mC]*dT*dT*d[5mC]*dT*d[5mC]*d[5mC]*d[5mC]*eT*eT*eG*e[5mC]*eA) [compound 155112]” is higher in “% INHIB” value: 75% for the first, 81% for the second.

Going from “155106 (antisense e[5mC]*eA*e[5mC]*eA*eA*d[5mC]*d[5mC]*dT*dG*d[5mC]*dA*dT*dG*dA*dA*eG*e[5mC]*eG*eA*e[5mC]) [compound 155106]” to “155113 (antisense e[5mC]*eT*eA*eA*eT*dG*dA*dG*dT*dT*dG*dA*dT*d[5mC]*dA*eT*e[5mC]*eA*eT*eA) [compound 155113]”, the “% INHIB” value rises from 66% to 83%.

Compared with “209537 (antisense eA*eG*eA*eG*eG*dT*dT*dT*dA*dT*d[5mC]*dT*dG*d[5mC]*d[5mC]*eA*eA*eA*eA*e[5mC]) [compound 209537]”, “209542 (antisense e[5mC]*eT*eT*eG*e[5mC]*dT*dT*d[5mC]*d[5mC]*dA*d[5mC]*dT*dA*dA*dA*eA*eA*eT*eG*eA) [compound 209542]” is higher in “% INHIB” value: 43% for the first, 74% for the second.
